Results on 3 molecules are retold here after patent US7910569B2, “Microbicidal compositions and their use” (BASF Aktiengesellschaft, priority 2003, dated 2011).

Holding throughout (assay type): cell-based
The subject of one assay is fungi. The assay can be described thus: Surface protection, fungal resistance of coating (BS3900 G6). On the set-up: key: 0=no growth; 1=trace of growth; 2=growth on 1-10% of test face; 3=growth on 10-30% of test face; 4=growth on 30-70% of test face; 5=growth on 70-100% of test face. How it is done: Testing was performed according to the BS3900 G6 and BBA MOAT 33 methods for evaluation versus fungi and algae, respectively. The methods involve painting a substrate panel with the coating and leaching under running water for 72 hours. […] Performance is judged by comparing with suitable control samples i.e without biocide, a positive control and for fungi with substrate panels that have not been leached.
(§1) Performance rating of painted test substrates is as follows and a score of 0, 1 and 2 is considered as a pass • 0=no growth • 1=trace of growth • 2=growth on 1-10% of test face • 3=growth on 10-30% of test face • 4=growth on 30-70% of test face • 5=growth on 70-100% of test face. Surface Protection using CuHDO

Another assay deals with algae. The assay can be described thus: Surface protection, algal resistance of coating (BBA MOAT 33). As to conditions: after leaching with running water for 72 hours. How it is done:
Testing was performed according to the BS3900 G6 and BBA MOAT 33 methods for evaluation versus fungi and algae, respectively. The methods involve painting a substrate panel with the coating and leaching under running water for 72 hours. The substrates are incubated for 56 days after being inoculated with fungi or algae. Performance is judged by comparing with suitable control samples i.e without biocide, a positive control and for fungi with substrate panels that have not been leached.
as §1

The subject of assay [1] is Bacterial and Fungal Challenges. Briefly: In can preservation challenge test (IBRG draft method), overall efficacy. As to conditions: 1000 ppm, acrylic ester and acrylonitrile polymer dispersion. How it is done: (§2) Tests were performed according to the IBRG draft method (5.2, June 2001). This briefly entails the substrate being dosed with the biocide and allowed to equilibrate. Samples are inoculated once per week for 4 weeks and checked for recovery of organisms at 1, 3 and 7 days after inoculation.
(§3) Results to show efficacy in a polymer based on an acrylic ester and acrylonitrile polymer dispersion using: • 1000 ppm CuHDO • 1000 ppm in-situ generated CuHDO (by blending within the matrix or medium, 315 ppm of basic copper carbonate containing 57.5% copper content with 3492 ppm of a 30% water soluble solution of potassium salt of N′-hydroxy-N-cyclohexyldiazenium oxide (KHDO))
(§4) Using the following performance rating: • P=Pass (0-100 colonies) • F=Fail (101->1000 colonies)

A further assay concerns Bacterial Challenges. The assay can be described thus: In can preservation challenge test (IBRG draft method), bacterial challenges. As to conditions: 1000 ppm, acrylic ester and acrylonitrile polymer dispersion. The protocol: as §2, §3, §4
In the next assay the test system is Fungal Challenges. Briefly: In can preservation challenge test (IBRG draft method), fungal challenges. As to conditions: 1000 ppm, acrylic ester and acrylonitrile polymer dispersion. How it is done:
as §2, §3, §4

[2] abbreviates: 0.5% by weight, after leaching with running water for 72 hours.
Setting [3] is: 0.5% by weight, coating as applied.
The mark [4] stands for this setting: 0.15% by weight, after leaching with running water for 72 hours.
[5] abbreviates: 0.15% by weight, coating as applied.
Where [6] appears, read: 0.2% by weight, after leaching with running water for 72 hours.
Setting [7] is: 0.2% by weight, coating as applied.
Where [8] appears, read: 1.5% by weight, after leaching with running water for 72 hours.
The mark [9] stands for this setting: 1.5% by weight, coating as applied.

`CCCCNC(=O)OCC#CI` [IPBC, reference compound]: in the assay on fungi (setting [2]), the “FUNGAL GROWTH ASSESSMENT Plaster Substrate 28 days” value is on record as 1, the “FUNGAL GROWTH ASSESSMENT Plaster Substrate 56 days” value is listed as 1, the “FUNGAL GROWTH ASSESSMENT Wood Substrate 28 days” value is given as 1 and the “FUNGAL GROWTH ASSESSMENT Wood Substrate 56 days” value is 1. For the same molecule, in the assay on fungi (setting [3]), the “FUNGAL GROWTH ASSESSMENT Plaster Substrate 28 days” value was 1, the “FUNGAL GROWTH ASSESSMENT Plaster Substrate 56 days” value is recorded as 1, the “FUNGAL GROWTH ASSESSMENT Wood Substrate 28 days” value stood at 1 and the “FUNGAL GROWTH ASSESSMENT Wood Substrate 56 days” value turned out to be 1.

Take `CCNc1nc(NC(C)(C)C)nc(SC)n1` [Terbutryn, reference compound]: in the assay with algae (0.5% by weight), the “ALGAL GROWTH ASSESSMENT 28 days” value is 0.0 and the “ALGAL GROWTH ASSESSMENT 56 days” value amounted to 0.0.

For `[Cu+2].[O-]/N=[N+](\[O-])C1CCCCC1.[O-]/N=[N+](\[O-])C1CCCCC1` [CuHDO, copper salt of N′-hydroxy-N-cyclohexyl-diazenium oxide], the “Overall Efficacy” value in assay [1] (pH 5) is “F^2 (F=Fail (101->1000 colonies))”; in assay [1] (pH 7), “P (P=Pass (0-100 colonies))”; in assay [1] (pH 9) it was “P (P=Pass (0-100 colonies))”. Moreover, the “ALGAL GROWTH ASSESSMENT 28 days” value in the assay on algae (0.15% by weight) is 2/2; in the assay with algae (0.2% by weight), 0.1; with algae (1.5% by weight) it was 0/0. The “ALGAL GROWTH ASSESSMENT 42 days” value is 1/1 in the assay on algae (0.15% by weight) and 0/0 in the assay on algae (1.5% by weight). Also, the “ALGAL GROWTH ASSESSMENT 56 days” value was 0/1 in the assay on algae (0.15% by weight), 1.2 in the assay on algae (0.2% by weight) and 0/0 in the assay with algae (1.5% by weight). For the same molecule, the “FUNGAL GROWTH ASSESSMENT Plaster Substrate 28 days” value was 1 in the assay on fungi (setting [4]); 1 with fungi (setting [5]); 2 (2=growth on 1-10% of test face) in the assay on fungi (setting [6]); 1 in the assay on fungi (setting [7]); 1 in the assay on fungi (setting [8]); 1 in the assay with fungi (setting [9]). The “FUNGAL GROWTH ASSESSMENT Plaster Substrate 42 days” value in the assay with fungi (setting [4]), in the assay with fungi (setting [5]), in the assay with fungi (setting [8]) and in the assay on fungi (setting [9]) was 1 in each case. Further, the “FUNGAL GROWTH ASSESSMENT Plaster Substrate 56 days” value in the assay with fungi (setting [4]) is recorded as 2 (2=growth on 1-10% of test face); in the assay on fungi (setting [5]), 1; in the assay with fungi (setting [6]) it was 3 (3=growth on 10-30% of test face); with fungi (setting [7]), 1; with fungi (setting [8]), 1; in the assay on fungi (setting [9]) it was 1. Further, the “FUNGAL GROWTH ASSESSMENT Wood Substrate 28 days” value with fungi (setting [4]) is 1; in the assay on fungi (setting [5]) it was 1; in the assay on fungi (setting [6]), 2 (2=growth on 1-10% of test face); in the assay on fungi (setting [7]), 1; with fungi (setting [8]), 1; with fungi (setting [9]), 1. The “FUNGAL GROWTH ASSESSMENT Wood Substrate 42 days” value with fungi (setting [4]), in the assay on fungi (setting [5]), with fungi (setting [8]) and with fungi (setting [9]) was 1 throughout. In addition, the “FUNGAL GROWTH ASSESSMENT Wood Substrate 56 days” value in the assay on fungi (setting [4]) is recorded as 2 (2=growth on 1-10% of test face); with fungi (setting [5]) it was 1; in the assay with fungi (setting [6]) it was 3 (3=growth on 10-30% of test face); in the assay on fungi (setting [7]) it was 1; in the assay on fungi (setting [8]), 1; with fungi (setting [9]) it was 1. Moreover, the “Bacterial Challenges” value with Bacterial Challenges (pH 5), in the assay on Bacterial Challenges (pH 7) and in the assay with Bacterial Challenges (pH 9) was “P (P=Pass (0-100 colonies))” throughout. Moreover, the “Fungal Challenges” value with Fungal Challenges (pH 5) is given as “F^2 (F=Fail (101->1000 colonies))”; in the assay with Fungal Challenges (pH 7) it was “P (P=Pass (0-100 colonies))”; in the assay on Fungal Challenges (pH 9) it was “P (P=Pass (0-100 colonies))”.
